Data as given in US9040261B2, “Compounds as L-cystine crystallization inhibitors and uses thereof” (NEW YORK UNIVERSITY, priority 2009, dated 2015).
Entries after “also recorded” stand apart in the source; their conditions may differ. Marks after values point to notes of the source that are not given here.

Assays:
[1] = Bulk crystallization of L-cystine in the presence of additives (mass yield); conditions: for Yield (%) = (collected mass by filtration, >11 μm)/(total mass added) × 100%: 2 mg/L additive, 0.7 g/L L-cystine (pH 6.8), no additive 80, approximate error ±8%, Dihydrochloride
Protocol: Alternately, the hexagonal crystals can be obtained by crystallization performed near neutral pH (Sa) The hexagonal form was crystallized from a supersaturated L-cystine solution prepared by adding 70 mg of L-cystine to 100 mL of deionized water (3 mM), and heating under reflux at 100° C. for 20 min with stirring to completely dissolve L-cystine. […] This concentration was used for bulk crystallization studies in the presence of additives so that a measurable amount of bulk crystals could be obtained in a reasonable time. The solution was then allowed to cool slowly with stirring for 75 min. 30 mL aliquots were transferred to separate glass containers, which were then sealed to prevent evaporation and exposure to airborne particulates and stored for 72 hours at room temperature without stirring. […] The crystals retrieved in this manner were used for AFM studies by mounting individual crystals according to the procedure described below.
Various proteins, poly-amino acids, and molecular mimics of L-cystine were examined as additives. The aforementioned procedure for hexagonal platelet crystallization was repeated. Following the 75 min cooling period, prior to any observable crystallization, the additive was added to the supersaturated L-cystine solution to the desired concentration. […] Crystallization without additive was performed in an identical manner for comparison using a control solution from the same batch. The mass yields of L-cystine crystals were obtained by dividing the mass of L-cystine crystals (collected from growth solution by filtration) by the mass of L-cystine added in the growth solution.
Additives chosen for these studies were various proteins, poly-amino acids, and molecular mimics of L-cystine (see Table 1). The above procedure for hexagonal platelet crystallization was repeated until completion of the 75 min cooling period, at which point 29.5 g of solution was transferred to a 100 mL beaker containing 0.5 g of separately prepared additive solution to yield net concentrations of 2 mg/L additive and 0.7 g/L L-cystine. Additive solutions were replaced with deionized water of equivalent volume for control measurements. […]
L-cystine bulk crystallization was investigated in the presence of various polymers, urinary constituents, fish antifreeze proteins (AFPs), and L-cystine derivatives (i.e. structural mimics of L-cystine), which were analyzed as possible growth inhibitors of hexagonal L-cystine. The potency of each additive was assessed by comparing the difference in crystal yield (Table 1), which is equal to the mass of crystals formed in the presence of 2 mg/L additive (isolated with […]) divided by the total mass of L-cystine (700 mg/L).

[2] = dosages between 100 mg/L and 20 g/L per day; ATP, reactive oxygen species levels, cell viability; cited from earlier work
[3] = AFM step velocity and hillock imaging with L-cystine diesters under continuous flow
Protocol: Atomic force microscopy was performed with a Digital Instruments (Santa Barbara, Calif.) Nanoscope Ma Multimode system. All measurements were performed in a cell designed to contain liquids for in situ imaging, including step velocity measurements. All measurements were performed in contact mode using Veeco NP_B Si3N4 tips on silicon nitride cantilevers with a spring constant of 0.12N/m (triangular, 196 μm length, 41 μm width). L-cystine crystals (hexagonal form) were transferred onto an AFM specimen disk coated with partially cured (1 hr) UV-curable optical cement (Type SK-9, EMS Acquisition Corp.) by gently pressing the disk against hexagonal platelets collected by filtration (Whatman Nuclepore membrane, 8 μm). The (001) faces of the hexagonal plates naturally aligned parallel with the specimen disk such that the velocity of the equivalent {100} steps could be measured readily by AFM. The partially cured polymer with the adhered crystals was cured completely by additional UV radiation (2 hrs) prior to analysis. The mounted L-cystine crystals were etched slightly by immersion in deionized water for 30 sec at 60° C. to remove amorphous deposits or impurities that may be present on the surface. Step velocities on the hexagonal L-cystine crystals were measured by AFM using a fluid cell containing an aqueous solution, supersaturated with L-cystine (2 mM), introduced to the cell via a syringe. Step velocities were determined by measuring the distance of the steps from a reference point, usually the dislocation core, in consecutive deflection images acquired at periodic intervals, ranging from 9-14 sec. Measurements were acquired under continuous flow of fresh solution in order to maintain constant supersaturation and additive concentration. […] The step velocities, which correspond to the crystal growth rates, were measured with and without inhibitor for each pair.

[4] = Crystal size and habit by optical microscopy and SEM after bulk crystallization with additive
Protocol: Various proteins, poly-amino acids, and molecular mimics of L-cystine were examined as additives. The aforementioned procedure for hexagonal platelet crystallization was repeated. Following the 75 min cooling period, prior to any observable crystallization, the additive was added to the supersaturated L-cystine solution to the desired concentration. The container was sealed and stored for 72 hours at room temperature without stirring, after which the precipitate was collected by vacuum filtration (Whatman Grade 1 filters, >11 μm pores) and were air dried prior to analysis. Crystallization without additive was performed in an identical manner for comparison using a control solution from the same batch. The mass yields of L-cystine crystals were obtained by dividing the mass of L-cystine crystals (collected from growth solution by filtration) by the mass of L-cystine added in the growth solution. The crystals were isolated with 11 μm-pore filters, which were regarded as sufficiently small for reliable capture of the crystals (optical micrographs reveal that the size of crystals was always greater than 50 μm
An Orion 3 Star pH meter (Thermo Electron Corp.) with Orion 9157BNMD probe was used to measure the pH of L-cystine solutions. Crystal morphology was measured with a Leitz ERGOLUZ optical microscope and a Hitachi 3500 scanning electron microscopy. A thin coating of gold (2 nm) was sputtered on SEM samples and images were acquired at low voltage (2-5 kV) to minimize sample melting. ^1H NMR spectra were recorded using a Bruker AVANCE 400 spectrometer and were routinely run using broadband decoupling. Chemical shifts (δ), expressed in ppm, are referenced to the corresponding residual nuclei in deuterated solvent (D2O). Powder X-ray diffraction (XRD) patterns of isolated crystals were acquired with a Panalytical XPert PRO MPD using a Bragg-Brentano geometry with fixed slits at power settings of 45 kV and 40 mA. A CuKa radiation (0.154 nm) source was used with a 1 degree fixed divergence slit (10 mm beam mask) for incident X-rays and a 1 degree anti-scatter slit Ni filter ( 1/16 degree receiving slit) for diffracted X-rays.

In the case of `COC(=O)[C@@H](N)CSSC[C@H](N)C(=O)OC.Cl.Cl` [CDME, Cystine Dimethyl Ester Dihydrochloride], the “CDME concentration sufficient to inhibit in vitro L-cystine crystallization” value ([1]; 2 mM L-cystine) is reported as about 25 mg/L, the “Yield (%) = (collected mass by filtration, >11 μm)/(total mass added) × 100%” value [1] is reported as 13% and the “Yield (%) = (collected mass by filtration, >11 μm)/(total mass added) × 100%” value ([1]; listed as L-cystine dimethyl ester) is reported as 13* %. For the same compound, the “CDME amount sufficient to suppress crystallization” value ([1]; 25 mg/L CDME in supersaturated L-cystine, 8 μm filter pores) was 3 wt %, the “mass yield of needles less than the yield of platelets in the absence of additive” value ([1]; CDME concentration approaching 5 mg/L) was “more than 70%” and the “CDME dosage that may be sufficient to inhibit in vivo L-cystine crystallization” value ([1]; extrapolated from 2 mM to physiological urine L-cystine (~0.4 mM)) was “less than 4 mg/L”. For the same compound, the “toxicity in cell culture and in vivo animal studies” value [2] was “possible adverse affects”, the “order of step roughening, corresponding to the trend in inhibition” value ([3]; 0.015 mM inhibitor, 2 mM L-cystine) was “L-CDME>L-CDEE>L-CDIE>L-CDTE” and the “inhibition of step velocity compared among four L-cystine diesters” value ([3]; 0.015 M inhibitor) was “best inhibitor”. The “needle volume less than hexagonal platelets” value [4] was about 100 times, the “size of hexagonal platelets” value ([4]; 1.7 mg/L CDME, 700 mg/L L-cystine, without additive 200-400 μm) was 50-100 μm and the “number of needles collected” value ([4]; 25 mg/L (3 wt %) CDME, Dihydrochloride) was “negligible; also recorded: Trace number of needles”.
